According to PubChem BioAssay AID330 (DTP/NCI, 2004):
Several values for one entry are separate records, joined by “and”; a condition that tells them apart may be missing. Equal entries are not always repeated. Toxic doses and inconclusive results are not listed. How the source made its calls: active means survival T/C of 150% or more; inactive means T/C below 125% in these data.

Test system: P388 leukemia ip, CD2F1 mice, survival T/C
Test: NCI In Vivo Anticancer Drug Screen. Data for tumor model P388 Leukemia (intraperitoneal) in CD2F1 (CDF1) mice
Details: endpoint: median survival time, higher = longer survival
Procedure, shortened: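 Mice carrying the transplanted tumor received test compound or vehicle. Survival was recorded in each group, and the value is the treated-group measurement divided by that of the vehicle-treated control group.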

[1] = dose: 12.5 mg/kg/injection, schedule: Q01DX009 (ip), vehicle: Klucel (hydroxypropylcellulose) (HPC)
[2] = dose: 25.0 mg/kg/injection, schedule: Q01DX009 (ip), vehicle: Klucel (hydroxypropylcellulose) (HPC)
[3] = dose: 50.0 mg/kg/injection, schedule: Q01DX005 (ip), vehicle: saline with Tween-80
[4] = dose: 100.0 mg/kg/injection, schedule: Q01DX005 (ip), vehicle: saline with Tween-80
[5] = dose: 200.0 mg/kg/injection, schedule: Q01DX005 (ip), vehicle: saline with Tween-80
[6] = dose: 60.0 mg/kg/injection, schedule: Q01DX005 (ip), vehicle: saline with Tween-80
[7] = dose: 120.0 mg/kg/injection, schedule: Q01DX005 (ip), vehicle: saline with Tween-80
[8] = dose: 240.0 mg/kg/injection, schedule: Q01DX005 (ip), vehicle: saline with Tween-80
[9] = dose: 50.0 mg/kg/injection, schedule: Q01DX009 (ip), vehicle: saline with Tween-80
[10] = dose: 100.0 mg/kg/injection, schedule: Q01DX009 (ip), vehicle: saline with Tween-80
[11] = dose: 200.0 mg/kg/injection, schedule: Q01DX009 (ip), vehicle: saline with Tween-80
[12] = dose: 50.0 mg/kg/injection, schedule: Q01DX005 (ip), vehicle: Klucel (hydroxypropylcellulose) (HPC)

Measured: T/C

Cc1ccc(NC(=S)SCc2ccc3c(c2)OCO3)cc1Cl
inactive: dose: 50.0 mg/kg/injection, schedule: Q01DX009 (ip), vehicle: suspension in saline 106 % of control | dose: 100.0 mg/kg/injection, schedule: Q01DX009 (ip), vehicle: suspension in saline 94 % of control | dose: 200.0 mg/kg/injection, schedule: Q01DX009 (ip), vehicle: suspension in saline 102 % of control

C/C(=N\N=P(c1ccccc1)(c1ccccc1)c1ccccc1)C(C)(C)C
inactive: dose: 6.25 mg/kg/injection, schedule: Q01DX009 (ip), vehicle: Klucel (hydroxypropylcellulose) (HPC) 100 % of control | [1] 95 % of control | [2] 94 % of control

Cc1ccc(S(=O)(=O)NN=C2[C@H]3CC=CC[C@H]3C(=NNS(=O)(=O)c3ccc(C)cc3)[C@@H]3CC=CC[C@H]23)cc1
inactive: [3] 90 % of control | [4] 87 % of control | [5] 103 % of control

CCCc1cc(=O)[nH]c(SCC(=O)O)n1
inactive: [6] 100 % of control | [7] 101 % of control | [8] 99 % of control

O=C(CCCNC(=O)OCc1ccccc1)OCc1ccc2c(c1)C(=O)c1ccccc1C2=O
inactive: dose: 100.0 mg/kg/injection, schedule: Q01DX001 (ip), vehicle: Klucel (hydroxypropylcellulose) (HPC) 89 % of control | dose: 200.0 mg/kg/injection, schedule: Q01DX001 (ip), vehicle: Klucel (hydroxypropylcellulose) (HPC) 88 % of control | dose: 400.0 mg/kg/injection, schedule: Q01DX001 (ip), vehicle: Klucel (hydroxypropylcellulose) (HPC) 86 % of control

COc1ccc(/C(=N/SC)N(C)C)cc1
inactive: dose: 3.75 mg/kg/injection, schedule: Q01DX005 (ip), vehicle: saline 103 % of control | dose: 7.5 mg/kg/injection, schedule: Q01DX005 (ip), vehicle: saline 111 % of control | dose: 15.0 mg/kg/injection, schedule: Q01DX005 (ip), vehicle: saline 104 % of control

Cc1ccc2c(c1)C=CC(C#N)N2C(=O)Oc1ccccc1 (stereo unspecified)
inactive: dose: 6.25 mg/kg/injection, schedule: Q01DX009 (ip), vehicle: saline 99 % of control and 101 % of control | dose: 12.5 mg/kg/injection, schedule: Q01DX009 (ip), vehicle: saline 98 % of control | dose: 25.0 mg/kg/injection, schedule: Q01DX009 (ip), vehicle: saline 93 % of control and 96 % of control

O=c1oc2c(cc1Cl)CCc1ccccc1-2
inactive: [3] 104 % of control | [4] 102 % of control | [5] 97 % of control

CC(C)(OC(=O)NC(CC(N)=O)C(=O)O)c1ccc(N=Nc2ccccc2)cc1 (stereo unspecified)
inactive: [9] 97 % of control | [10] 92 % of control | [11] 92 % of control

COC(=O)c1nc(OC)nc(OC)c1C#CCOC1CCCCO1 (stereo unspecified)
inactive: dose: 12.5 mg/kg/injection, schedule: Q01DX009 (ip), vehicle: distilled water + Tween-80 92 % of control | dose: 25.0 mg/kg/injection, schedule: Q01DX009 (ip), vehicle: distilled water + Tween-80 108 % of control | dose: 50.0 mg/kg/injection, schedule: Q01DX009 (ip), vehicle: distilled water + Tween-80 94 % of control | dose: 100.0 mg/kg/injection, schedule: Q01DX009 (ip), vehicle: distilled water + Tween-80 94 % of control

O=C(c1ccccc1)c1cc([N+](=O)[O-])cc([N+](=O)[O-])c1
inactive: [10] 104 % of control | [11] 97 % of control | dose: 400.0 mg/kg/injection, schedule: Q01DX009 (ip), vehicle: saline with Tween-80 97 % of control

C#CC(OS(=O)(=O)C(F)(F)F)=C1C2CC3CC(C2)CC1C3
inactive: [3] 100 % of control | [4] 98 % of control | [5] 100 % of control

CCCCCCCC(=O)C1C(c2ccc(C(C)C)cc2)CC(=O)C(CCCCCC)C1c1ccc(C(C)C)cc1 (stereo unspecified)
inactive: dose: 6.25 mg/kg/injection, schedule: Q01DX005 (ip), vehicle: saline with Tween-80 91 % of control | dose: 12.5 mg/kg/injection, schedule: Q01DX005 (ip), vehicle: saline with Tween-80 89 % of control | dose: 25.0 mg/kg/injection, schedule: Q01DX005 (ip), vehicle: saline with Tween-80 99 % of control | [4] 93 % of control | [5] 98 % of control

C=CCOC(OCC=C)C(OCC=C)OCC=C
inactive: dose: 100.0 mg/kg/injection, schedule: Q01DX009 (ip), vehicle: saline 109 % of control | dose: 100.0 mg/kg/injection, schedule: Q04DX003 (ip), vehicle: saline 100 % of control | dose: 200.0 mg/kg/injection, schedule: Q01DX009 (ip), vehicle: saline 100 % of control | dose: 200.0 mg/kg/injection, schedule: Q04DX003 (ip), vehicle: saline 100 % of control | dose: 400.0 mg/kg/injection, schedule: Q01DX009 (ip), vehicle: saline 122 % of control | dose: 400.0 mg/kg/injection, schedule: Q04DX003 (ip), vehicle: saline 100 % of control

NNC(=O)C(=O)Nc1nccs1
inactive: [6] 94 % of control | [7] 95 % of control

c1ccc(-c2ccc(-c3csnn3)cc2)cc1
inactive: dose: 12.5 mg/kg/injection, schedule: Q01DX009 (ip), vehicle: saline with Tween-80 100 % of control | dose: 25.0 mg/kg/injection, schedule: Q01DX009 (ip), vehicle: saline with Tween-80 95 % of control | [9] 91 % of control and 94 % of control | [10] 91 % of control | [11] 88 % of control

FC(F)(F)c1ccc2[nH]c3c(c2c1)CCCC3
inactive: dose: 100.0 mg/kg/injection, schedule: Q01DX001 (ip), vehicle: saline with Tween-80 102 % of control | dose: 200.0 mg/kg/injection, schedule: Q01DX001 (ip), vehicle: saline with Tween-80 102 % of control | dose: 400.0 mg/kg/injection, schedule: Q01DX001 (ip), vehicle: saline with Tween-80 103 % of control

CC(C)n1ncc2c(N)ncnc21
inactive: dose: 3.75 mg/kg/injection, schedule: Q01DX009 (ip), vehicle: saline 100 % of control | dose: 7.5 mg/kg/injection, schedule: Q01DX009 (ip), vehicle: saline 95 % of control | dose: 15.0 mg/kg/injection, schedule: Q01DX009 (ip), vehicle: saline 104 % of control and 95 % of control

CC1=NN(C(=O)c2ccccn2)C(=O)C1N=Nc1ccc(S(=O)(=O)Nc2ncccn2)cc1 (stereo unspecified)
inactive: [6] 102 % of control | [7] 105 % of control | [8] 94 % of control

O=[N+]([O-])c1cnc(Sc2ncc([N+](=O)[O-])cn2)nc1
inactive: dose: 60.0 mg/kg/injection, schedule: Q01DX005 (ip), vehicle: saline 99 % of control | dose: 120.0 mg/kg/injection, schedule: Q01DX005 (ip), vehicle: saline 102 % of control | dose: 240.0 mg/kg/injection, schedule: Q01DX005 (ip), vehicle: saline 99 % of control

CC(C)(C)c1ccc(C(=O)N2CCOC23CCCCC3)cc1
inactive: [12] 105 % of control | dose: 100.0 mg/kg/injection, schedule: Q01DX005 (ip), vehicle: Klucel (hydroxypropylcellulose) (HPC) 96 % of control | dose: 200.0 mg/kg/injection, schedule: Q01DX005 (ip), vehicle: Klucel (hydroxypropylcellulose) (HPC) 96 % of control

O=C1OC(Oc2ccccc2OC2OC(=O)c3ccccc32)c2ccccc21 (stereo unspecified)
inactive: [6] 98 % of control | [7] 106 % of control | [8] 100 % of control

C(=C\CSc1ccccn1)/CSc1ccccn1
inactive: [1] 107 % of control | [2] 99 % of control | dose: 50.0 mg/kg/injection, schedule: Q01DX009 (ip), vehicle: Klucel (hydroxypropylcellulose) (HPC) 90 % of control and 91 % of control | dose: 200.0 mg/kg/injection, schedule: Q01DX009 (ip), vehicle: Klucel (hydroxypropylcellulose) (HPC) 91 % of control

CN(c1ccccc1)c1ccc([N+](=O)[O-])c2no[n+]([O-])c12
inactive: dose: 7.5 mg/kg/injection, schedule: Q01DX009 (ip), vehicle: suspension in saline 92 % of control and 97 % of control | dose: 15.0 mg/kg/injection, schedule: Q01DX009 (ip), vehicle: suspension in saline 92 % of control and 96 % of control | dose: 30.0 mg/kg/injection, schedule: Q01DX009 (ip), vehicle: suspension in saline 103 % of control and 90 % of control | dose: 60.0 mg/kg/injection, schedule: Q01DX009 (ip), vehicle: suspension in saline 110 % of control and 115 % of control

O=C(CCCl)Nc1cccc(CCC(=O)c2cccc(NC(=O)CCCl)c2)c1
inactive: dose: 15.0 mg/kg/injection, schedule: Q01DX005 (ip), vehicle: saline with Tween-80 103 % of control | dose: 30.0 mg/kg/injection, schedule: Q01DX005 (ip), vehicle: saline with Tween-80 103 % of control | [6] 102 % of control and 103 % of control | [7] 103 % of control | [8] 110 % of control

OCCN(CCO)Cc1cccc2ccccc12
inactive: [3] 94 % of control | [4] 94 % of control

COC(=O)n1sc(SC)nc1=N
inactive: dose: 12.5 mg/kg/injection, schedule: Q01DX005 (ip), vehicle: Klucel (hydroxypropylcellulose) (HPC) 88 % of control | dose: 25.0 mg/kg/injection, schedule: Q01DX005 (ip), vehicle: Klucel (hydroxypropylcellulose) (HPC) 114 % of control | [12] 100 % of control and 114 % of control
